Reference: patent publication US4812443A, “Methods for enhancing differentiation and proliferation of hematopoietic progenitor cells” (Kuraray Co., Ltd., priority 1984, dated 1989)

How the values were obtained:
[1] = tested on: late erythrocytic progenitor cells (CFU-e); assay: Differentiation and proliferation of late erythrocytic progenitor cells (CFU-e), cluster colony formation; assay type: cell-based, mouse (BDF1-strain); settings: 20 μg/ml, Runs 2 to 4
Method: The mouse bone marrow cells used in the following experiments were all prepared as follows:
BDF1 -strain mice (female, 8 to 10 weeks old) were killed by cervical dislocation, and the femurs were collected under sterile conditions. The bone marrow cells were flushed out from the femurs with α-medium, and formed into a single cell suspension by repeated aspiration with a 26-gauge needle fitted to a 1 ml-syringe. The cells were washed two times with α-medium by centrifugation at 200×G for 5 minutes and used in the following experiments.
In accordance with the method of Murphy et al. mentioned above, mouse bone marrow cells were plated at 2.5×10^4 nuclear cells into 0.5 ml of α-medium containing 0.25 unit of erythropoietin, 30% fetal bovine serum, 1% bovine serum albumin, 0.1 mM 2-mercaptoethanol and 0.4% methyl cellulose with 10 μg of dolichol dissolved in 1 μl of ethanol, 10 μg of dolichyl phosphate dispersed in 0.5 μl of dimethyl sulfoxide, 1 μl of ethanol or 0.5 μl of dimethyl sulfoxide in a 16 mm.phi. tissue culture plate, and incubated at 37° C. in a humidified atmosphere of 5% carbon dioxide in air for 2 days. The number of cluster colonies consisting of 8 to 64 erythroblasts derived from CFU-e in the tissue culture plate was scored with an inverted microscope. The experiment was carried out by 6 replica assays for each group, and the average number of the colonies formed was determined. The results are shown in Table 3, in the rows of Runs 2 to 4.

[2] = tested on: mice; assay: Neuropharmacological test using mice (Irwin's method); assay type: in vivo, mouse (ddY-strain); settings: 150, 300 and 600 mg/kg i.p.
From the text: (§1) Since the dolichol is a water-insoluble oily liquid, it was used as a solution in sesame oil in the case of oral administration, and as a suspension in a nonionic surfactant (HCO-60, a trade name for a product of Nikko Chemical Co., Ltd.) in the case of intraperitoneal administration and in an in vitro test in the following experiment.
(§2) In the following experiment, ddY-strain male mice, Wistar-strain male rats (Shizuoka Laboratory Animal Center), Japanese white male rabbits (Carely) and Hartley-strain male guinea pigs (Clea Japan Inc.) were used. The animals were kept under conditions including a temperature of 23±1° C., a humidity of 55±10%, an illuminating time (7:00 am to 9.00 pm) and 15 ventilations per hour. The mice and rats were fed with solid feeds MF (a product of Oriental Yeast Co., Ltd.) and the guinea pigs and rabbits were fed with solid feeds GM-3 and RM-1 (Funabashi Farm Co.). They were allowed to take tap water freely. The animals were preliminarily kept for more than one week, and those which were healthy in general conditions were used in the experiments.
ddY-strain male mice, 6 per group, were used, and their changes in behavior, nervous symptoms, autonomic nervous symptoms and toxic symptoms were observed, analyzed and recorded in accordance with the Irwin's method of observation. […]

[3] = tested on: extracted ileum; assay: Peripheral action, extracted ileum of guinea pigs; parameters: species or system guinea pig (Hartley-strain); settings: up to 10^-4 g/ml; 32° C.
From the text: as §1
In the following experiment, ddY-strain male mice, Wistar-strain male rats (Shizuoka Laboratory Animal Center), Japanese white male rabbits (Carely) and Hartley-strain male guinea pigs (Clea Japan Inc.) were used. The animals were kept under conditions including a temperature of 23±1° C., a humidity of 55±10%, an illuminating time (7:00 am to 9.00 pm) and 15 ventilations per hour. […]
Hartley-strain male guinea pigs (350 to 400 g), 3 per group, were used, and the extracted ileum samples were suspended in Tyrode solution at 32° C. through which air was introduced. The contraction of the ileum was recorded on an ink-writing oscillograph (EMP-3004, Nippon Photoelectric Co. through an isotonic transducer (TD-112S, Nippon Photoelectric Co.). The direct action of dolichol and the antagonistic action of dolichol against acetylcholine, histamine and nicotine in a concentration of 10^-6 g/ml, 10^-5 g/ml, and 10^-4 g/ml, respectively, were examined.

[4] = tested on: extracted spermiduct; assay: Peripheral action, extracted spermiduct of rats; parameters: species or system rat (Wistar-strain); settings: up to 10^-4 g/ml, 32° C.
From the text: as §1, §2
Wistar-strain male rats (180 to 200 g), 3 per group, were used. The extracted spermiduct samples were suspended in Locke-Ringer solution at 32° C. The contraction of the spermiduct was recorded by the same method as in the preceding section. […]

[5] = tested on: maximal electroshock seizure; assay: Anticonvulsive action (maximal electroshock seizure) in mice; assay type: in vivo, mouse (ddY-strain); settings: 150, 300 and 600 mg/kg; one hour after administration; 40 mA, 0.4 msec, 50 Hz, 0.5 sec; vs control
From the text: as §1, §2
ddY-male mice (27-30 g), 6 per group, were used. One hour after administration of dolichol to the mice, an electric current was passed through the corneas of the mice under conditions of 40 mA, 0.4 msec, 50 Hz and 0.5 sec, and the time of duration of tonic extension (T. E.) was measured.

[6] = tested on: corneal reflex; assay: Local anesthetic action in guinea pigs (corneal reflex); assay type: in vivo, guinea pig (Hartley-strain); settings: up to 0.1%, dropped into the eyes
From the text: as §1, §2
Hartley-strain male guinea pigs (370-440 g), 3 per group, were used. Dolichol was dropped in a concentration of 0.001%, 0.01% and 0.1%, respectively, into the eyes of the guinea pigs. […]

[7] = tested on: mice; assay: Acute toxicity of dolichol in mice; assay type: in vivo, mouse (ddY-strain); settings: 5,000 mg/kg orally or 1,000 mg/kg intraperitoneally
Method: (1) Dolichol synthesized in Referential Example 1 below was used as a solution in sesame oil in the case of oral administration, or as a suspension in HCO-60 (a trade name for a nonionic surfactant made by Nikko Chemical Co., Ltd.) in the case of intraperitoneal administration.
ddY-strain mice (21-27 g), 6 per group, were used. Dolichol was administered to the mice in a dose of 5,000 mg/kg orally, or 1,000 mg/kg intraperitoneally on the 1st day of the test, and the mice were then observed for toxic symptoms and mortality for seven days. The body weights of the mice were measured before administration and on the 1st and 7th days. Control groups were each given sesame oil or HCO-60, and observed and weighed in the same way as in the case of the groups to which dolichol was administered. On the 7th day, all the mice were dissected and visually observed.

Substance: dolichol
- Number of colonies formed in the dolichols-added group (CFU-e) ([1]; 2 days, erythropoietin 0.25 unit, mean ± S.E., 6 replicas, solvent controls 124.2 ± 2.7, 246.0 ± 5.0, 124.7 ± 2.9): 151.0 ± 2.2
- Percent increase (%) of colony formation (CFU-e) ([1]; vs solvent-added control group): +21.6%
- Effect on behaviors, nervous symptoms, autonomic nervous symptoms and toxic symptoms [2]: no effect was observed
- Direct action on extracted ileum [3]: no direct action
- Antagonistic action against noradrenalin ([4]; extracted spermiduct): nor any antagonistic action
- Direct action on extracted spermiduct [4]: no direct action
- Time of duration of tonic extension (T. E.) [5]: no significant difference was noted
- Disappearance of corneal reflex [6]: no disappearance of corneal reflex
- Local anesthetic action [6]: no local anesthetic action was observed
- Changes in body weight ([7]; 1st and 7th days, vs control): no sigificant difference was noted
- Abnormality in dissection ([7]; 7th day): No abnormality was noted
- Mortality ([7]; seven days): no case of death in all of the mice tested
